Excerpt: (§1) Solubility may be determined by measuring the amount of light transmittance (a light transmittance value) through a simple mixture of the non-volatile silicone fluid and liquid activation enhancer at the same weight/weight concentrations as in a final antiperspirant composition.
as §1, with “Solubility of a liquid activation enhancer in a non-volatile silicone” for “Solubility”, “(light” for “(a light”
The Spectronic Genesys 10 Vis utilizes a tungsten-halogen light source and has a spectral bandwidth of 5 nm, a wavelength range of 325 to 1100 nm, accuracy of ±1 nm and a repeatability of ±0.5 nm. Readouts include absorbance, transmittance and concentration. The spectrophotometer is set to 640 nm wavelength and the percent transmittance mode/readout. Polystyrene spectrometer cuvettes having a 1 cm optical light path and transmittance between ˜340 nm and ˜900 nm are used. One suitable example of a spectrometer cuvette is available from VWR International LLC under Catalog #97000-584 having a 2.5 to 4.5 ml capacity. […] The sample cuvettes are shaken well just prior to taking a light transmittance reading.

| light transmittance value | SMILES |
| --- | --- |
| about 100% | CCCCCCCCCCCCCCCCCC(=O)OCCCC [butyl stearate] |
| about 100% | CCCCCCCCCCCCCC(C)C [isohexadecane] |
